Test results as given in ChEMBL document CHEMBL5034018, “LXR-Mediated Regulation of Marine-Derived Piericidins Aggravates High-Cholesterol Diet-Induced Cholesterol Metabolism Disorder in Mice” (J Med Chem, 2021).
Calls of active or inactive are those of the source. No cut-off for these calls is given here.

Tests used:
[1] = Down regulation of Cyp7a1 mRNA expression level in human HepG2 cells at 1 uM by RT-qPCR analysis; format: functional
[2] = Toxicity in renal carcinoma xenografted C57BL/6 mouse assessed as effect on visceral coefficient of heart at 0.8 mg/kg, ip; format: organism-based; conditions: in vivo
[3] = Toxicity in HCD-fed C57BL/6 mouse assessed as fold increase in ALT level at 0.8 mg/kg, ip; format: organism-based; conditions: in vivo
[4] = Hepatotoxicity in renal carcinoma xenografted C57BL/6 mouse assessed as liver swelling at 0.8 mg/kg, ip; format: toxicity, organism-based; conditions: in vivo
[5] = Toxicity in mouse assessed as death at 10 mg/kg, po after 45 mins; format: organism-based; conditions: in vivo, 0.75 h
Mus musculus [6] = experiment: Induction of hepatic pathological changes in normal chow diet fed C57BL/6 mouse at 0.8 mg/kg, ip; format: organism-based; conditions: in vivo
Mus musculus [7] = experiment: Induction of histopathological changes in HCD-fed C57BL/6 mouse assessed as striking subcapsular foci at 0.8 mg/kg, ip; format: organism-based; conditions: in vivo
Mus musculus [8] = species: Mus musculus; experiment: Effect on bile acid homeostasis in HCD-fed C57BL/6 mouse assessed as change in Car protein expression; format: functional
HepG2 [9] = experiment: Induction of apoptosis in human HepG2 cells assessed as live cells at 5 uM measured after 48 hrs by Annexin-V-FITC/propidium iodide staining based flow cytometry (reference value: 84.5 %); format: functional
Mus musculus [10] = experiment: Induction of histopathological changes in HCD-fed C57BL/6 mouse assessed as white discoloration of liver at 0.8 mg/kg, ip; format: organism-based; conditions: in vivo
HepG2 [11] = experiment: Induction of apoptosis in human HepG2 cells assessed as necrotic cells at 5 uM measured after 48 hrs by Annexin-V-FITC/propidium iodide staining based flow cytometry (reference value: 0 %); format: functional
[12] = Effect on bile acid homeostasis in HCD-fed C57BL/6 mouse assessed as reversal of LXRbeta mRNA upregulation by RT-qPCR analysis; format: functional
[13] = Toxicity in renal carcinoma xenografted C57BL/6 mouse assessed as change in IL-6 level at 0.8 mg/kg, ip; format: organism-based; conditions: in vivo
[14] = Toxicity in renal carcinoma xenografted C57BL/6 mouse assessed as effect on visceral coefficient of spleen at 0.8 mg/kg, ip; format: organism-based; conditions: in vivo
[15] = Effect on bile acid homeostasis in HCD-fed C57BL/6 mouse assessed as down regulation of Ost-alpha mRNA expression by RT-qPCR analysis; format: functional
[16] = Toxicity in renal carcinoma xenografted C57BL/6 mouse kidney assessed as change in CRE level at 0.8 mg/kg, ip; format: organism-based; conditions: in vivo
[17] = Toxicity in HCD-fed C57BL/6 mouse assessed as fold increase in AST level at 0.8 mg/kg, ip; format: organism-based; conditions: in vivo
[18] = Induction of Cholesterol accumulation in human HepG2 cells assessed as fold increase in LDL-cholesterol level at 5 uM after 48 hrs; format: functional
[19] = Effect on bile acid homeostasis in HCD-fed C57BL/6 mouse assessed as down regulation of Oatp1 mRNA expression by RT-qPCR analysis; format: functional
[20] = Toxicity in renal carcinoma xenografted C57BL/6 mouse assessed as effect on visceral coefficient of kidney at 0.8 mg/kg, ip; format: organism-based; conditions: in vivo
Mus musculus [21] = experiment: Induction of HCD-induced cholestasis in C57BL/6 mouse assessed as fold increase in liver LDL-cholesterol level at 0.8 mg/kg, ip; format: organism-based; conditions: in vivo
[22] = Effect on bile acid homeostasis in HCD-fed C57BL/6 mouse assessed as fold increase in LXRalpha mRNA expression by RT-qPCR analysis; format: functional
[23] = Toxicity in renal carcinoma xenografted C57BL/6 mouse assessed as change in IL-1beta level at 0.8 mg/kg, ip; format: organism-based; conditions: in vivo
Mus musculus [24] = experiment: Induction of HCD-induced cholestasis in C57BL/6 mouse assessed as large scale necrotic foci at 0.8 mg/kg, ip; format: functional, organism-based
Mus musculus [25] = experiment: Induction of HCD-induced cholestasis in C57BL/6 mouse assessed as lipid accumulation in liver at 0.8 mg/kg, ip; format: functional, organism-based
[26] = Hepatotoxicity in renal carcinoma xenografted C57BL/6 mouse assessed as liver necrosis at 0.8 mg/kg, ip by histological analysis; format: toxicity, organism-based; conditions: in vivo
[27] = Toxicity in renal carcinoma xenografted C57BL/6 mouse assessed as effect on visceral coefficient of liver at 0.8 mg/kg, ip; format: organism-based; conditions: in vivo
[28] = Toxicity in HCD-fed C57BL/6 mouse assessed as body weight loss at 0.8 mg/kg, ip measured on day 28; format: organism-based; conditions: in vivo
Mus musculus [29] = species: Mus musculus; experiment: Effect on bile acid homeostasis in HCD-fed C57BL/6 mouse assessed as change in Mrp2 mRNA expression by RT-qPCR analysis; format: functional
Mus musculus [30] = experiment: Induction of histopathological changes in HCD-fed C57BL/6 mouse assessed as swelling gallbladder size at 0.8 mg/kg, ip; format: organism-based; conditions: in vivo
[31] = Down regulation of Cyp7a1 mRNA expression level in human HepG2 cells at 5 uM by RT-qPCR analysis; format: functional
[32] = Hepatotoxicity in renal carcinoma xenografted C57BL/6 mouse assessed as fold increase in plasma ALT at 0.8 mg/kg, ip; format: toxicity, organism-based; conditions: in vivo
[33] = Effect on bile acid homeostasis in HCD-fed C57BL/6 mouse assessed as inhibition of Cyp7a1 mRNA expression by RT-qPCR analysis; format: functional; set-up: scale not given: the % may be the effect or the level left
[34] = Hepatotoxicity in renal carcinoma xenografted C57BL/6 mouse assessed as effect on body weight at 0.8 mg/kg, ip; format: toxicity, organism-based; conditions: in vivo
HepG2 [35] = experiment: Induction of calcium signal in human HepG2 cells at 5 uM by Fluo-4AM dye based fluorescence assay; format: functional, cell-based
HepG2 [36] = experiment: Induction of apoptosis in human HepG2 cells assessed as late apoptotic cells at 5 uM measured after 48 hrs by Annexin-V-FITC/propidium iodide staining based flow cytometry (reference value: 0 %); format: functional
Mus musculus [37] = species: Mus musculus; experiment: Effect on bile acid homeostasis in HCD-fed C57BL/6 mouse assessed as change in Ppar-alpha mRNA expression by RT-qPCR analysis; format: functional
Mus musculus [38] = experiment: Induction of HCD-induced cholestasis in C57BL/6 mouse assessed as fold increase in liver total bile acid level at 0.8 mg/kg, ip; format: organism-based; conditions: in vivo
[39] = Hepatotoxicity in renal carcinoma xenografted C57BL/6 mouse assessed as fold increase in plasma AST at 0.8 mg/kg, ip; format: toxicity, organism-based; conditions: in vivo
[40] = Toxicity in renal carcinoma xenografted C57BL/6 mouse assessed as effect on visceral coefficient of lung at 0.8 mg/kg, ip; format: organism-based; conditions: in vivo
[41] = Hepatotoxicity in renal carcinoma xenografted C57BL/6 mouse assessed as appearance of pyknotic nucleus at 0.8 mg/kg, ip by histological analysis; format: toxicity, organism-based; conditions: in vivo
HepG2 [42] = experiment: Induction of mitochondrial dysfunction in human HepG2 cells assessed as increase in ROS production at 0.1 to 5 uM after 48 hrs by flow cytometric analysis; format: cell-based; conditions: hepg2, 48 h, dose 0.1-5 µM
[43] = Toxicity in renal carcinoma xenografted C57BL/6 mouse kidney assessed as change in BUN level at 0.8 mg/kg, ip; format: organism-based; conditions: in vivo

With `C/C=C(\C)[C@H](O)[C@H](C)/C=C(C)/C=C/C/C(C)=C/Cc1nc(OC)c(OC)c(O)c1C` [PIERICIDIN A] the Activity [1] was 27%, the Activity [2] was “Non-Toxic” and the “fold change (FC)” value [3] was 3.7. The Activity [4] was “Non-Toxic”, the Activity [5] was “Non-Toxic” and the Activity (Mus musculus [6]) was “Non-Toxic”. The Activity (Mus musculus [7]) was “Toxic”, the Activity (Mus musculus [8]) was “inactive” and the Activity (HepG2 [9]) was 75.4%. For the same molecule, the Activity (Mus musculus [10]) was “Toxic”, the Activity (HepG2 [11]) was 0% and the Activity [12] was 72%. The Activity [13] was “Non-Toxic”, the Activity [14] was “Non-Toxic” and the Activity [15] was 10%. For the same molecule, the Activity [16] was “Non-Toxic”, the “fold change (FC)” value [17] was 2.3 and the “fold change (FC)” value [18] was 2.7. For the same molecule, the Activity [19] was 66%, the Activity [20] was “Non-Toxic” and the “fold change (FC)” value (Mus musculus [21]) was 2.2. The “fold change (FC)” value [22] was 1.3, the Activity [23] was “Non-Toxic” and the Activity (Mus musculus [24]) was “Active”. The Activity (Mus musculus [25]) was “Active”, the Activity [26] was “Toxic” and the Activity [27] was “Non-Toxic”. For the same molecule, the Activity [28] was “Toxic”, the Activity (Mus musculus [29]) was “inactive” and the Activity (Mus musculus [30]) was “Toxic”. The Activity [31] was 26%, the “fold change (FC)” value [32] was 2.6 and the Activity [33] was 14%. The Activity [34] was “Non-Toxic”, the Activity (HepG2 [35]) was “Active” and the Activity (HepG2 [36]) was 0%. For the same molecule, the Activity (Mus musculus [37]) was “inactive”, the “fold change (FC)” value (Mus musculus [38]) was 2.2 and the “fold change (FC)” value [39] was 1.6. The Activity [40] was “Non-Toxic”, the Activity [41] was “Toxic” and the Activity (HepG2 [42]) was “Non-Toxic”. For the same molecule, the Activity [43] was “Non-Toxic”.
With `C/C=C(\C)[C@H](O[C@@H]1O[C@H](CO)[C@@H](O)[C@H](O)[C@H]1O)[C@H](C)/C=C(C)/C=C/C/C(C)=C/Cc1nc(OC)c(OC)c(O)c1C` the Activity [1] was 51%, the Activity [2] was “Non-Toxic” and the “fold change (FC)” value [3] was 3.8. The Activity [4] was “Non-Toxic”, the Activity [5] was “Toxic” and the Activity (Mus musculus [6]) was “Non-Toxic”. For the same molecule, the Activity (Mus musculus [7]) was “Toxic”, the Activity (Mus musculus [8]) was “inactive” and the Activity (HepG2 [9]) was 64.3%. For the same molecule, the Activity (Mus musculus [10]) was “Toxic”, the Activity (HepG2 [11]) was 0% and the Activity [12] was 72%. For the same molecule, the Activity [13] was “Non-Toxic”, the Activity [14] was “Non-Toxic” and the Activity [15] was 44%. The Activity [16] was “Non-Toxic”, the “fold change (FC)” value [17] was 2.3 and the “fold change (FC)” value [18] was 3.1. For the same molecule, the Activity [19] was 65%, the Activity [20] was “Non-Toxic” and the “fold change (FC)” value (Mus musculus [21]) was 2.9. For the same molecule, the “fold change (FC)” value [22] was 1.4, the Activity [23] was “Non-Toxic” and the Activity (Mus musculus [24]) was “Active”. The Activity (Mus musculus [25]) was “Active”, the Activity [26] was “Toxic” and the Activity [27] was “Non-Toxic”. The Activity [28] was “Toxic”, the Activity (Mus musculus [29]) was “inactive” and the Activity (Mus musculus [30]) was “Toxic”. The Activity [31] was 38%, the “fold change (FC)” value [32] was 2.3 and the Activity [33] was 14%. The Activity [34] was “Non-Toxic”, the Activity (HepG2 [35]) was “Active” and the Activity (HepG2 [36]) was 0%. For the same molecule, the Activity (Mus musculus [37]) was “inactive”, the “fold change (FC)” value (Mus musculus [38]) was 2.3 and the “fold change (FC)” value [39] was 2.2. The Activity [40] was “Non-Toxic”, the Activity [41] was “Toxic” and the Activity (HepG2 [42]) was “Non-Toxic”. The Activity [43] was “Non-Toxic”.
